Test results reported in US11091482B2, “Isoxazolyl-carbonyloxy azabicyclo[3.2.1]octanyl compounds as FXR activators” (ARDELYX, INC., priority 2016, dated 2021).

Tests used:
[1] = target: ligand binding domain of human FXR (Homo sapiens (Human), UniProt Q96RI1); test: FXR ligand binding assay (LanthaScreen FRET); settings: for Emax: read-out: % Efficacy;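 for all read-outs here: TR-FRET coactivator recruitment: ligand-induced binding of fluorescein-labelled SRC2-2 peptide to GST-tagged FXR LBD detected via Tb anti-GST antibody, serial compound dilutions, 3-parameter logistic fit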
Chain of ligand binding domain of human FXR (Q96RI1 262-486): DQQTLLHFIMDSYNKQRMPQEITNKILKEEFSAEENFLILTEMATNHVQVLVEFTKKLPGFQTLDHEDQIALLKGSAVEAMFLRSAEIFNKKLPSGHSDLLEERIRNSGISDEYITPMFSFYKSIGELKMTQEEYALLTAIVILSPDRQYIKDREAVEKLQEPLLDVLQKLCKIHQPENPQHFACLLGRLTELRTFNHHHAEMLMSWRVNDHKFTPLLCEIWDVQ

[2] = target: human Farnesoid X receptor ligand-binding domain/Gal4 DNA binding domain chimera (Homo sapiens (Human), UniProt Q96RI1); test: Cell-based FXR beta-lactamase reporter assay (FXR-UAS-bla HEK 293T cells); settings: for FXR pEC50 / % Efficacy / EC50: cellular FXR beta-lactamase reporter assay; for FXR pEC50 / EC50: -log EC50; for % Efficacy: extent of activation relative to GW4064; for Emax: HEK-293T, read-out: % Efficacy; for EC50: read-out: FXR pEC50 (converted)
Chain of human Farnesoid X receptor ligand-binding domain/Gal4 DNA binding domain chimera (Q96RI1 262-486, stated change not applied): as the sequence (Q96RI1 262-486) above
Experimental: FXR activation was measured using a cell line and procedure obtained from Life Technologies (Cat #K1691). FXR-UAS-bla HEK 293T cells contain a human Farnesoid X receptor ligand-binding domain/Gal4 DNA binding domain chimera stably integrated into the CellSensor® UAS-bla HEK 293T cell line. The CellSensor® UAS-bla HEK 293T contains a beta-lactamase reporter gene under control of a UAS response element stably integrated into HEK 293T cells. Activation of FXR by bound ligands results in transcriptional activation of the beta-lactamase reporter gene, which is detected via assay of beta-lactamase activity. Cells are harvested and diluted into assay medium containing phenol red-free DMEM supplemented with 2% Charcoal-stripped FBS, pyruvate, non-essential amino acids. Cells are then transferred to a 384 well assay plate. Test compounds are dissolved in DMSO and a 3-fold serial dilution series is generated, then further diluted into assay medium. […] A FRET-based […] is loaded into cells as its acetomethoxy ester. Intracellular esterases liberate free CCF4, a cephalosporin core linking 7-hydroxycoumarin to fluorescein. In the presence of beta-lactamase activity produced in the presence of FXR agonists, cleavage of CCF4 spatially separates the two dyes and disrupts FRET, so that exciting the coumarin at 409 nm now produces a blue fluorescence signal at 447 nm. The change in FRET signal is plotted against the test compound concentration and fit to a 3-parameter logistical equation.

[3] = FXR ligand binding assay, -log EC50

SMILES	Emax [1]	Emax [2]	EC50 [2]	other results
O=C(O)c1cc(F)c2nc(N3[C@@H]4CC[C@H]3C[C@@H](OC(=O)c3c(C56CCC(CC5)CC6)noc3C3CC3)C4)sc2c1 [Compound I-20, 2-[(1R,3R,5S)-3-(3-{Bicyclo[2.2.2]octan-1-yl}-5-cyclopropyl-1,2-oxazole-4-carbonyloxy)-8-azabicyclo[3.2.1]octan-8-yl]-4-fluoro-1,3-benzothiazole-6-carboxylic Acid]				FXR pEC50 [1, 3]: >4.5; FXR pEC50 [2]: 6.6; % Efficacy [2]: 22%
O=C(O)c1ccc(N2[C@@H]3CC[C@H]2C[C@@H](OC(=O)c2c(-c4c(Cl)cccc4Cl)noc2C2CC2)C3)c(F)c1 [Compound I-35, 4-[(1R,3R,5S)-3-[5-Cyclopropyl-3-(2,6-dichlorophenyl)-1,2-oxazole-4-carbonyloxy]-8-azabicyclo[3.2.1]octan-8-yl]-3-fluorobenzoic Acid]	92%	116%	31.6 nM	
O=C(O)c1ccc(N2[C@@H]3CC[C@H]2C[C@@H](OC(=O)c2c(-c4c(Cl)cccc4Cl)noc2C2CC2)C3)cc1F [Compound I-41, 4-[(1R,3R,5S)-3-[5-cyclopropyl-3-(2,6-dichlorophenyl)-1,2-oxazole-4-carbonyloxy]-8-azabicyclo[3.2.1]octan-8-yl]-2-fluorobenzoic acid]	92%	117%	20 nM	FXR pEC50 [1, 3]: 7.7
CN1c2cc(N3[C@@H]4CC[C@H]3C[C@@H](OC(=O)c3c(-c5c(Cl)cccc5Cl)noc3C3CC3)C4)ccc2C(=O)C1(F)F [Compound I-30, (1R,3R,5S)-8-(2,2-difluoro-1-methyl-3-oxo-2,3-dihydro-1H-indol-6-yl)-8-azabicyclo[3.2.1]octan-3-yl 5-cyclopropyl-3-(2,6-dichlorophenyl)-1,2-oxazole-4-carboxylate]	40%	82%	100 nM	
COc1cc(C(=O)O)ccc1N1[C@@H]2CC[C@H]1C[C@@H](OC(=O)c1c(-c3c(Cl)cccc3Cl)noc1C1CC1)C2 [Compound I-40, 4-[(1R,3R,5S)-3-[5-cyclopropyl-3-(2,6-dichlorophenyl)-1,2-oxazole-4-carbonyloxy]-8-azabicyclo[3.2.1]octan-8-yl]-3-methoxybenzoic acid]	103%	117%	39.8 nM	EC50 ([1]; FXR ligand binding assay, -log EC50, read-out: FXR pEC50 (converted)): 63.1 nM
O=C(NS(=O)(=O)CC1CC1)c1ccc(N2[C@@H]3CC[C@H]2C[C@H](OC(=O)c2c(-c4c(Cl)cccc4Cl)noc2C2CC2)C3)cc1 [Compound I-49, (1R,3S,5S)-8-[4-(cyclopropylmethanesulfonylcarbamoyl)phenyl]-8-azabicyclo[3.2.1]octan-3-yl 5-cyclopropyl-3-(2,6-dichlorophenyl)-1,2-oxazole-4-carboxylate]				FXR pEC50 [1, 3]: 8; % Efficacy ([1]; FXR ligand binding assay, extent of activation relative to GW4064): 128%; FXR pEC50 [2]: 8.1; % Efficacy [2]: 107%
COc1cc2nc(N3[C@@H]4CC[C@H]3C[C@@H](OC(=O)c3c(-c5c(F)cccc5F)noc3C3CC3)C4)sc2cc1C(=O)O [Compound I-18, 2-[(1R,3R,5S)-3-[5-cyclopropyl-3-(2,6-difluorophenyl)-1,2-oxazole-4-carbonyloxy]-8-azabicyclo[3.2.1]octan-8-yl]-5-methoxy-1,3-benzothiazole-6-carboxylic Acid]	66%	99%	251 nM	
O=C(O)c1cc(C2CC2)c2nc(N3[C@@H]4CC[C@H]3C[C@@H](OC(=O)c3c(-c5c(Cl)cccc5Cl)noc3C3CC3)C4)sc2c1 [Compound I-12, 2-[(1R,3R,5S)-3-[5-cyclopropyl-3-(2,6-dichlorophenyl)-1,2-oxazole-4-carbonyloxy]-8-azabicyclo[3.2.1]octan-8-yl]-4-(cyclopropyl)-1,3-benzothiazole-6-carboxylic Acid]	125%	112%	7.94 nM	
O=C(OCCN(CCO)CCO)c1cc(F)c2nc(N3[C@@H]4CC[C@H]3C[C@@H](OC(=O)c3c(-c5c(Cl)cccc5Cl)noc3C3CC3)C4)sc2c1 [Compound I-63, 2-[bis(2-hydroxyethyl)amino]ethyl 2-[(1R,3R,5S)-3-[5-cyclopropyl-3-(2,6-dichlorophenyl)-1,2-oxazole-4-carbonyloxy]-8-azabicyclo[3.2.1]octan-8-yl]-4-fluoro-1,3-benzothiazole-6-carboxylate]		112%	10000 nM	FXR pEC50 [1, 3]: >6.5
COc1cc(C(=O)O)cc2sc(N3[C@@H]4CC[C@H]3C[C@@H](OC(=O)c3c(-c5c(Cl)cccc5Cl)noc3C3CC3)C4)nc12 [Compound I-8, 2-[(1R,3R,5S)-3-[5-Cyclopropyl-3-(2,6-dichlorophenyl)-1,2-oxazole-4-carbonyloxy]-8-azabicyclo[3.2.1]octan-8-yl]-4-methoxy-1,3-benzothiazole-6-carboxylic Acid]	105%	114%	3.98 nM	
O=C(NS(=O)(=O)CCCO)c1ccc(N2[C@@H]3CC[C@H]2C[C@@H](OC(=O)c2c(-c4c(Cl)cccc4Cl)noc2C2CC2)C3)cc1 [Compound I-50, (1R,3R,5S)-8-{4-[(3-hydroxypropanesulfonyl)carbamoyl]phenyl}-8-azabicyclo[3.2.1]octan-3-yl 5-cyclopropyl-3-(2,6-dichlorophenyl)-1,2-oxazole-4-carboxylate]		102%	158 nM	
O=C(O)c1cccc(S(=O)(=O)N2[C@@H]3CC[C@H]2C[C@@H](OC(=O)c2c(-c4c(Cl)cccc4Cl)noc2C2CC2)C3)c1 [Compound I-55, 3-{[(1R,3R,5S)-3-[5-cyclopropyl-3-(2,6-dichlorophenyl)-1,2-oxazole-4-carbonyloxy]-8-azabicyclo[3.2.1]octan-8-yl]sulfonyl}benzoic Acid]		96%	1000 nM	
COc1cc(C(=O)O)cc2sc(N3[C@@H]4CC[C@H]3C[C@@H](OC(=O)c3c(C56CCC(CC5)CC6)noc3C3CC3)C4)nc12 [Compound I-21, 2-[(1R,3R,5S)-3-(3-{bicyclo[2.2.2]octan-1-yl}-5-cyclopropyl-1,2-oxazole-4-carbonyloxy)-8-azabicyclo[3.2.1]octan-8-yl]-4-methoxy-1,3-benzothiazole-6-carboxylic Acid]		44%		
NC(=O)c1cc(F)c2nc(N3[C@@H]4CC[C@H]3C[C@@H](OC(=O)c3c(-c5c(Cl)cccc5Cl)noc3C3CC3)C4)sc2c1 [Compound I-3, (1R,3R,5S)-8-(6-carbamoyl-4-fluoro-1,3-benzothiazol-2-yl)-8-azabicyclo[3.2.1]octan-3-yl 5-cyclopropyl-3-(2,6-dichlorophenyl)-1,2-oxazole-4-carboxylate]	60%			
Cn1c(N2[C@@H]3CC[C@H]2C[C@@H](OC(=O)Cc2c(-c4c(Cl)cccc4Cl)noc2C2CC2)C3)nc2c(F)cc(C(=O)O)cc21 [Compound I-33, 2-[(1R,3R,5S)-3-({2-[5-cyclopropyl-3-(2,6-dichlorophenyl)-1,2-oxazol-4-yl]acetyl}oxy)-8-azabicyclo[3.2.1]octan-8-yl]-4-fluoro-1-methyl-1H-1,3-benzodiazole-6-carboxylic Acid]		72%		
COc1cc2nc(N3[C@@H]4CC[C@H]3C[C@@H](OC(=O)c3c(C56CCC(CC5)CC6)noc3C3CC3)C4)sc2cc1C(=O)O [Compound I-22, 2-[(1R,3R,5S)-3-(3-{bicyclo[2.2.2]octan-1-yl}-5-cyclopropyl-1,2-oxazole-4-carbonyloxy)-8-azabicyclo[3.2.1]octan-8-yl]-5-methoxy-1,3-benzothiazole-6-carboxylic Acid]		44%	398 nM	
